Laboratory results taken from patent US20230040182A1, “ARYL HETEROBICYCLIC COMPOUNDS AS Kv1.3 POTASSIUM SHAKER CHANNEL BLOCKERS” (priority 2019, published 2023).

Key:
Kv1.3 potassium channel = target: T1, Kv1.3 potassium channel (Homo sapiens, UniProt P22001); experiment: Kv1.3 potassium channel blocker activity, automated whole-cell patch clamp (Patchliner); type: cell-based; conditions: CHO-K1 cells stably expressing Kv1.3; whole-cell current, Hill fit
T1 construct: expressed in transfected cells
Outline: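 Stably transfected CHO-K1 cells, whole-cell automated patch clamp: 100 ms pulses from −90 to +40 mV at 0.1 Hz, 20-pulse trains, cumulative concentrations 30 nM–100 μM without washout (≤0.3% DMSO), external pH 7.4. IC50 from Hill fit of last-pulse peak/AUC normalized to compound-free control.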

hERG channel = target: T2, hERG channel (Homo sapiens, UniProt Q12809); experiment: hERG electrophysiology, automated whole-cell patch clamp (Patchliner); type: cell-based; conditions: CHO-K1 cells stably expressing hERG; whole-cell current, Hill fit
T2 construct: expressed in transfected cells
Procedure: Example 10. Evaluation of hERG Activities
This assay is used to evaluate the disclosed compounds' inhibition activities against the hERG channel.
CHO-K1 cells stably expressing hERG were grown in Ham's F-12 Medium with Glutamine containing 10% heat-inactivated FBS, 1% Penicillin/Streptomycin, Hygromycin (100 μg/ml) and G418 (100 μg/ml). Cells were grown in culture flasks at 37° C. in a 5% CO2-humidified incubator.
The cells were bathed in an extracellular solution containing 140 mM NaCl, 4 mM KCl, 2 mM CaCl2), 1 mM MgCl2, 5 mM Glucose, 10 mM HEPES; pH adjusted to 7.4 with NaOH; 295-305 mOsm. The internal solution contained 50 mM KCl, 10 mM NaCl, 60 mM KF, 20 mM EGTA, 10 mM HEPES; pH adjusted to 7.2 with KOH; 285 mOsm. All compounds were dissolved in DMSO at 30 mM. Compound stock solutions were freshly diluted with external solution to concentrations of 30 nM, 100 nM, 300 nM, 1 μM, 3 μM, 10 μM, 30 μM and 100 μM. The highest content of DMSO (0.3%) was present in 100 μM.
The voltage protocol (see Table B) was designed to simulate voltage changes during a cardiac action potential with a 300 ms depolarization to +20 mV (analogous to the plateau phase of the cardiac action potential), a repolarization for 300 ms to −50 mV (inducing a tail current) and a final step to the holding potential of −80 mV. The pulse frequency was 0.3 Hz. Control (compound-free) and compound pulse trains for each compound concentration applied contained 70 pulses.
Whole-cell current recordings and compound application were enabled by means of an automated patch clamp platform Patchliner (Nanion). EPC 10 patch clamp amplifier (HEKA) along with Patchmaster software (HEKA Elektronik Dr. Schulze GmbH) was used for data acquisition. Data were sampled at 10 kHz without filtering. Increasing compound concentrations were applied consecutively to the same cell without washouts in between.
AUC and PEAK values were obtained with Patchmaster (HEKA Elektronik Dr. Schulze GmbH). To determine IC50 the last single pulse in the pulse train corresponding to a given compound concentration was used. Obtained AUC and PEAK values in the presence of compound were normalized to control values in the absence of compound. Using Origin (OridinLab), IC50 was derived from data fit to Hill equation: Icompound/Icontrol=(100−A)/(1+([compound]/IC50)nH)+A, where IC50 is the concentration at which current inhibition is half-maximal, [compound] is the applied compound concentration, A is the fraction of current that is not blocked and nH is the Hill coefficient.

T1 sequence (P22001 whole entry): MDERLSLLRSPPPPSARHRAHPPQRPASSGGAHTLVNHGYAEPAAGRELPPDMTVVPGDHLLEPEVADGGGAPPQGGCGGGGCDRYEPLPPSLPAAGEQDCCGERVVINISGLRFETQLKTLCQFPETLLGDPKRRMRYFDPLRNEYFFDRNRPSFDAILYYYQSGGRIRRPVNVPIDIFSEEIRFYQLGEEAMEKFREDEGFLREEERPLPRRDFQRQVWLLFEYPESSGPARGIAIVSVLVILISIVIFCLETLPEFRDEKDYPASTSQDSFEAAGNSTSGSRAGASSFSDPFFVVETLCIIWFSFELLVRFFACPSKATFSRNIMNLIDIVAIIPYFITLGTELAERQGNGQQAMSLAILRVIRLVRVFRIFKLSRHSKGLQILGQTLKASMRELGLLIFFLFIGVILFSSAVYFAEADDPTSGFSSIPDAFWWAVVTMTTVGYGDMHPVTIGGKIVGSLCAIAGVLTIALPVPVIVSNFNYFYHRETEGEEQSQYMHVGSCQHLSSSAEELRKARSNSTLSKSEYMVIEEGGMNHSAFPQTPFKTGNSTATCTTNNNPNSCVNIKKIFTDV
T2 sequence (Q12809 whole entry): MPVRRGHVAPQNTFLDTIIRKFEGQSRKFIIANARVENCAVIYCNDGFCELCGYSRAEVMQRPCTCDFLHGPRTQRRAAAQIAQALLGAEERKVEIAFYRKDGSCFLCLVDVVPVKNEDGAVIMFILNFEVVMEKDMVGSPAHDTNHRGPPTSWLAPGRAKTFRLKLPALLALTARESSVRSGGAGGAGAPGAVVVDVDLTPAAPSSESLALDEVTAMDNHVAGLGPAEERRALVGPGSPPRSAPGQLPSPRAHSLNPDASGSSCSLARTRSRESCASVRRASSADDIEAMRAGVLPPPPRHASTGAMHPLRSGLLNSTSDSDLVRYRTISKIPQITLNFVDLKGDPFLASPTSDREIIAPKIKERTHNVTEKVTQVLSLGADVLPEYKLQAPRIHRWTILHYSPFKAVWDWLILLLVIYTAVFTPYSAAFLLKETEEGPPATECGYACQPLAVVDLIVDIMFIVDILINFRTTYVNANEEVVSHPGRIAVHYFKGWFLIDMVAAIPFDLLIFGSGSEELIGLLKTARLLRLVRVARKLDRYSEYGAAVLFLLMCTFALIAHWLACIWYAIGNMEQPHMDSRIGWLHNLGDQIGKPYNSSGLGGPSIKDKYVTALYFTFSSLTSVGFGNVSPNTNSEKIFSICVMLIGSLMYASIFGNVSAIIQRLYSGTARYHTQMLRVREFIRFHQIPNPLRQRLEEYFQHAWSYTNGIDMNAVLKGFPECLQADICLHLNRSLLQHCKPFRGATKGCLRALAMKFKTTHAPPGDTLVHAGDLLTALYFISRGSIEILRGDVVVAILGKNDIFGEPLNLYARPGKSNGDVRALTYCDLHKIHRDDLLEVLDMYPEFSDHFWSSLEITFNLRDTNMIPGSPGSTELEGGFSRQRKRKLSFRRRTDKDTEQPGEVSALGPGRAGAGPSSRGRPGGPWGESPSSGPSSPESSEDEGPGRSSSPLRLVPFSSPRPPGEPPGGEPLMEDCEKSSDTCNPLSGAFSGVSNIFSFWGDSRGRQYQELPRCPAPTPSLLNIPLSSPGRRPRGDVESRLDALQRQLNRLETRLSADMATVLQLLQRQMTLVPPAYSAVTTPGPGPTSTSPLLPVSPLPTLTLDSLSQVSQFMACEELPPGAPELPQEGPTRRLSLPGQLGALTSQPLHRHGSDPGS

IC50 (Kv1.3 potassium channel) | SMILES | IC50 (hERG channel)
< 1 µM | O=C1[C@@H]2C[C@H](c3c(O)ccc(Cl)c3Cl)CCN2C(=O)[C@H]2C[C@@H](O)CN12 [Compound 52, (2R,5aS,7R,11aR)-7-(2,3-dichloro-6-hydroxyphenyl)-2-hydroxyhexahydro-1H-pyrido[1,2-a]pyrrolo[1,2-d]pyrazine-5,11(5aH,11aH)-dione] | > 30 µM
< 1 µM | O=C1N[C@@H](CO)C(=O)N2CC[C@@H](c3c(O)ccc(Cl)c3Cl)C[C@@H]12 [Compound 53, (3S,8R,9aS)-8-(2,3-dichloro-6-hydroxyphenyl)-3-(hydroxymethyl)hexahydro-4H-pyrido[1,2-a]pyrazine-1,4(6H)-dione] | > 30 µM
< 1 µM | C[C@H]1NC(=O)[C@@H]2C[C@H](c3c(O)ccc(Cl)c3Cl)CCN2C1=O [Compound 58, (3R,8R,9aS)-8-(2,3-dichloro-6-hydroxyphenyl)-3-methyl-hexahydro-2H-pyrido[1,2-a]pyrazine-1,4-dione] | > 30 µM
< 1 µM | O=C1N[C@H](CO)C(=O)N2CC[C@@H](c3c(O)cc(Cl)c(Cl)c3Cl)C[C@@H]12 [Compound 60, (8R,9aS)-3-((3R)-hydroxymethyl)-8-(2,3,4-trichloro-6-hydroxyphenyl)-hexahydro-2H-pyrido[1,2-a]pyrazine-1,4-dione] | > 30 µM
< 1 µM | O=C1[C@H]2C[C@@H](c3c(O)ccc(Cl)c3Cl)CCN2C(=O)CN1C1CNC1 [Compound 64, (8S,9aR)-2-(azetidin-3-yl)-8-(2,3-dichloro-6-hydroxyphenyl)-octahydro-1H-pyrido[1,2-a]pyrazine-1,4-dione] | > 30 µM
< 1 µM | NN1C(=O)[C@@H]2C[C@H](c3c(O)ccc(Cl)c3Cl)CCN2C1=O [Compound 68, (7R,8aS)-2-amino-7-(2,3-dichloro-6-hydroxyphenyl)tetrahydro-imidazo[1,5-a]pyridine-1,3(2H,5H)-dione] | > 30 µM
